From publication PMC9835529, “Investigation of Novel Quinoline–Thiazole Derivatives as Antimicrobial Agents: In Vitro and In Silico Approaches” (ACS Omega, 2022)
≈ marks a conversion by molar mass, not a printed value. Read-outs that look alike come from different tables or passages of the source.

Tests used:
[1] = system: Candida parapsilosis ATCC 22019; assay: Anticandidal broth microdilution (EUCAST EDef 7.1), MIC90; assay type: cell-based
Source text: (§1) E. coli (ATCC 35218), E. coli (ATCC 25922), S. aureus (ATCC 6538), methicillin-resistant S. aureus (MRSA) (clinical isolate), S. typhimurium (ATCC 13311), and K. pneumoniae (NCTC 9633) cells for antibacterial effect, and C. albicans (ATCC 24433), C. glabrata (ATCC 90030), C. krusei (ATCC 6258), and C. parapsilosis (ATCC 22019) for the antifungal effect of the final compounds were used to determine the MIC90 values. The broth microdilution procedure specified in the M07-A9 document of the Clinical and Laboratory Standards Institute (CLSI) was used for antibacterial study,[55] and the EDef 7.1 document published by EUCAST was used for the antifungal study.[56] For both activity studies, the detailed procedures were explained in previous studies.[57],[58]

[2] = system: Candida albicans ATCC 24433; assay: as above; assay type: cell-based
Source text: as §1

Candida krusei ATCC 6258 = assay: as above; assay type: cell-based
Source text: as §1

[3] = system: Escherichia coli ATCC 35218; assay: Antibacterial broth microdilution (CLSI M07-A9), MIC90; assay type: cell-based; details: Escherichia coli, ATCC35218; E. coli ATCC 35218
Source text: (§2) The broth microdilution procedure specified in the M07-A9 document of the Clinical and Laboratory Standards Institute (CLSI) was used for antibacterial study,[55] and the EDef 7.1 document published by EUCAST was used for the antifungal study.[56] For both activity studies, the detailed procedures were explained in previous studies.[57],[58]

E. coli ATCC 25922 = assay: as above; assay type: cell-based; details: Escherichia coli, ATCC25922
Source text: as §2

[4] = system: Salmonella typhimurium ATCC 13311; assay: as above; assay type: cell-based; details: Salmonella enterica; S. typhimurium ATCC 13311
Source text: as §2

[5] = system: Klebsiella pneumoniae NCTC 9633; assay: as above; assay type: cell-based; details: NCTC9633, K. pneumoniae NCTC 9633
Source text: as §2

[6] = system: methicillin-resistant S. aureus (MRSA) (clinical isolate); assay: as above; assay type: cell-based; details: Staphylococcus aureus
Source text: as §2

[7] = system: Staphylococcus aureus ATCC 6538; assay: as above; assay type: cell-based; details: S. aureus ATCC 6538
Source text: as §2

C. glabrata ATCC 90030 = assay: Anticandidal broth microdilution (EUCAST EDef 7.1), MIC90; assay type: cell-based, Candida glabrata; details: Nakaseomyces glabratus, ATCC90030, C. glabrata ATCC 90030
Source text: as §1

NIH/3T3 cells = assay: Cytotoxicity on NIH/3T3 healthy cell line; assay type: cell-based; details: Mus musculus, NIH3T3, 24 h incubation
Method: NIH/3T3 cells were incubated in Dulbecco’s modified Eagle’s medium (DMEM) (Sigma-Aldrich, St. Louis, MO), added with fetal calf serum, penicillin (100 IU/mL), streptomycin ([…]), and 7.5% NaHCO3 at 37 °C in a humidified atmosphere of 95% air and 5% CO2. NIH/3T3 cells were seeded into the 96-well plates at a density of 1 × 10^4 cells. After 24 h of incubating period, the culture media were removed, and test compounds were added. After 24 h of incubation period, colorimetric measurements were performed by a microplate reader (Biotek) at 540 nm. Inhibition % at all concentrations was determined using the formula below, and the IC50 values were calculated from a dose–response curve obtained by plotting the percentage inhibition versus the log concentration with the use of Microsoft Excel 2013.

[8] = biological target: T1, Lanosterol 14α-demethylase (LMD, CYP51A1) (Candida glabrata, UniProt P50859); assay: LDM (CYP51A1) inhibition by LC-MS-MS quantification of ergosterol level; assay type: cell-based; details: C. glabrata; for inhibition at 0.06 µg/mL: 0.06 μg/mL; for inhibition at 0.06 µg/mL / inhibition at 0.24 µg/mL / inhibition at 0.98 µg/mL: read-out: CYP51A1 Inhibition%; for inhibition at 0.24 µg/mL: 0.24 μg/mL; for inhibition at 0.98 µg/mL: 0.98 μg/mL
T1 construct: tested against Candida strains via the determination of ergosterol production; endogenous in cells; host or cells: C. glabrata (ATCC 90030)
Method: (§3) The activity of the target compounds was tested against Candida strains via the determination of ergosterol production.
(§4) Ergosterol level was determined using the extract of total sterols from C. albicans (and its other species) following the method described by Breivik and Owades.[63] Quantification of the ergosterol level in this extract was carried out by the recently described method.[58],[64]−[66] According to these described studies, in the current work, compounds 4b, 4e, 4f, and 4h–m were undertaken to investigate their action mechanism. Thus, the LC-MS-MS-based method that quantifies the ergosterol level was applied. […]. Ergosterol quantity in negative control samples was regarded as 100%. All concentrations were analyzed in quadruplicate, and the results were expressed as mean ± standard deviation (SD).

[9] = system: Lanosterol 14α-demethylase (LMD, CYP51A1); assay: as above; assay type: cell-based
Method: as §3, §4

[10] = Lodderomyces parapsilosis, ATCC22019, C. parapsilosis ATCC 22019, read-out: MIC90
[11] = Candida albicans, ATCC24433, C. albicans ATCC 24433, read-out: MIC90
[12] = Pichia kudriavzevii, ATCC6258, C. krusei ATCC 6258, read-out: MIC90
[13] = Staphylococcus aureus, ATCC6538, read-out: MIC90

T1 sequence (P50859 whole entry): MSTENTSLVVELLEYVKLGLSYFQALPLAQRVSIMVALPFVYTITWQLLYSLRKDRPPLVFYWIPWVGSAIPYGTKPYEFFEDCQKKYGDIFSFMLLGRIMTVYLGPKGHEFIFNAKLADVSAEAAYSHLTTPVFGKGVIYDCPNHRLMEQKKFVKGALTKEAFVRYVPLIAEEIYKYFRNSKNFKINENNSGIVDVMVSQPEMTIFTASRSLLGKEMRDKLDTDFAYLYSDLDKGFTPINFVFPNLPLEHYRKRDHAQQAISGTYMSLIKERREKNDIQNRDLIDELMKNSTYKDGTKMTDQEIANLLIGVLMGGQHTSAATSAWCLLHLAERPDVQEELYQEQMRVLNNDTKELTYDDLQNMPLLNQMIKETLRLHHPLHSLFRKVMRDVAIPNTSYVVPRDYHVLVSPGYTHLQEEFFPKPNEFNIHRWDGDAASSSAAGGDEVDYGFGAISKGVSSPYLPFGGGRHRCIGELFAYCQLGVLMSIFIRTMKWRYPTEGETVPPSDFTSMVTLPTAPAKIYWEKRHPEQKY

| MIC90 [1, 10] | MIC90 [2, 11] | MIC90 (Candida krusei ATCC 6258; [12]) | melting point | MIC90 [3] | MIC90 (E. coli ATCC 25922) | MIC90 [4] | MIC90 [5] | MIC90 [6] | MIC90 [7, 13] | MIC90 (C. glabrata ATCC 90030) | Structure (SMILES) | IC50 (NIH/3T3 cells) | inhibition at 0.06 µg/mL [8] | inhibition at 0.24 µg/mL [8] | inhibition at 0.98 µg/mL [8] | further results |
| --- | --- | --- | --- | --- | --- | --- | --- | --- | --- | --- | --- | --- | --- | --- | --- | --- |
| 15.6 µg/mL (≈ 39.6 µM) | 1.95 µg/mL (≈ 4.94 µM) | 1.95 µg/mL (≈ 4.94 µM) | 220 to 222 °C | > 1000 µg/mL | > 1000 µg/mL | > 1000 µg/mL | > 1000 µg/mL | > 1000 µg/mL | > 1000 µg/mL | 1.95 µg/mL (≈ 4.94 µM) | COc1ccc2nc(Cl)c(/C=N/Nc3nc(-c4ccccc4)cs3)cc2c1 [4d] | 1.26 ± 0.033 µM |  |  |  |  |
| 1.95 µg/mL (≈ 4.38 µM) | 3.91 µg/mL (≈ 8.79 µM) | 1.95 µg/mL (≈ 4.38 µM) | 199 to 202 °C | > 1000 µg/mL | > 1000 µg/mL | > 1000 µg/mL | > 1000 µg/mL | > 1000 µg/mL | 62.5 µg/mL (≈ 140 µM) | 1.95 µg/mL (≈ 4.38 µM) | COc1ccc2nc(Cl)c(/C=N/Nc3nc(-c4ccc5ccccc5c4)cs3)cc2c1 [4n] | > 1000 µM |  |  |  |  |
|  |  |  |  | 31.2 µg/mL (≈ 96.7 µM) | 15.6 µg/mL (≈ 48.4 µM) | 31.2 µg/mL (≈ 96.7 µM) | 31.2 µg/mL (≈ 96.7 µM) | 31.2 µg/mL (≈ 96.7 µM) | ≤ 1.95 µg/mL |  | O=C(N[C@H](CO)[C@H](O)c1ccc([N+](=O)[O-])cc1)C(Cl)Cl [chloramphenicol, reference compound] |  |  |  |  | MIC90 ([7]; listed as RF-1): ≤1.95 µg/mL |
| 31.2 µg/mL (≈ 72.8 µM) | > 1000 µg/mL | 31.2 µg/mL (≈ 72.8 µM) | 195 to 197 °C | > 1000 µg/mL | > 1000 µg/mL | > 1000 µg/mL | > 1000 µg/mL | > 1000 µg/mL | > 1000 µg/mL | < 0.06 µg/mL | COc1ccc2nc(Cl)c(C=NNc3nc(-c4ccc(Cl)cc4)cs3)cc2c1 [4b] | 14.7 ± 0.34 µM | 36.2 ± 0.965% | 51.8 ± 1.61% | 60.2 ± 2.1% | effect on ergosterol production / LMD enzyme inhibition (in words) [8]: showed their anticandidal activity via LMD enzyme inhibition |

| Structure (SMILES) | MIC90 [1, 10] | MIC90 [2, 11] | MIC90 (Candida krusei ATCC 6258; [12]) | melting point | MIC90 [3] | MIC90 (E. coli ATCC 25922) | MIC90 [4] | MIC90 [5] | MIC90 [6] | MIC90 [7, 13] | MIC90 (C. glabrata ATCC 90030) | IC50 (NIH/3T3 cells) | inhibition at 0.06 µg/mL [8] | inhibition at 0.24 µg/mL [8] | inhibition at 0.98 µg/mL [8] | further results |
| --- | --- | --- | --- | --- | --- | --- | --- | --- | --- | --- | --- | --- | --- | --- | --- | --- |
| CC(=O)N1CCN(c2ccc(OCC3COC(Cn4ccnc4)(c4ccc(Cl)cc4Cl)O3)cc2)CC1 (stereo not drawn) [ketoconazole, reference compound] | < 0.06 µg/mL | < 0.06 µg/mL | < 0.06 µg/mL |  |  |  |  |  |  |  | 0.24 µg/mL (≈ 0.452 µM) |  | 50.4 ± 1.16% | 61.9 ± 1.83% | 72.8 ± 2.87% | MIC90 ([1]; C. parapsilosis ATCC 22019, listed as Rf): ≤0.06 µg/mL; MIC90 ([2]; C. albicans ATCC 24433, listed as Rf): ≤0.06 µg/mL; MIC90 (Candida krusei ATCC 6258; C. krusei ATCC 6258, listed as Rf): ≤0.06 µg/mL; CYP51A1 Inhibition% ([9]; C. krusei, 0.06 μg/mL): 52.865 ± 1.662%; CYP51A1 Inhibition% ([9]; C. krusei, 0.24 μg/mL): 60.630 ± 2.875%; CYP51A1 Inhibition% ([9]; C. krusei, 0.98 μg/mL): 75.647 ± 2.749%; CYP51A1 Inhibition% ([9]; C. parapsilosis, 0.06 μg/mL): 55.348 ± 1.091%; CYP51A1 Inhibition% ([9]; C. parapsilosis, 0.24 μg/mL): 63.419 ± 2.074%; CYP51A1 Inhibition% ([9]; C. parapsilosis, 0.98 μg/mL): 71.864 ± 2.229% |
